“And” between values parts separate entries of the source, which are not always exact repeats. Equal values may be shown once.
Assays:
Assay type in all cases: cell-based
AaegOR31 = target: T1, AaegOR31 (Aedes aegypti, UniProt Q16JU0); assay: Two-electrode voltage clamp of Xenopus laevis oocytes expressing AaegOR31/Orco (blends, unitary compounds, concentration-response); conditions: AaegOR31, compounds of blend Alcohols 1; for Normalized response, Average, Alcohols 1 unitary compounds: average of 8 oocytes; for Raw Data (Responses in nA), Alcohols 1 unitary compounds / Normalized response, Alcohols 1 unitary compounds: individual oocytes (Oocyte 1-8); for Normalized response, Alcohols 1 unitary compounds: normalized to the strongest compound per oocyte
T1 sequence (Q16JU0 1-381): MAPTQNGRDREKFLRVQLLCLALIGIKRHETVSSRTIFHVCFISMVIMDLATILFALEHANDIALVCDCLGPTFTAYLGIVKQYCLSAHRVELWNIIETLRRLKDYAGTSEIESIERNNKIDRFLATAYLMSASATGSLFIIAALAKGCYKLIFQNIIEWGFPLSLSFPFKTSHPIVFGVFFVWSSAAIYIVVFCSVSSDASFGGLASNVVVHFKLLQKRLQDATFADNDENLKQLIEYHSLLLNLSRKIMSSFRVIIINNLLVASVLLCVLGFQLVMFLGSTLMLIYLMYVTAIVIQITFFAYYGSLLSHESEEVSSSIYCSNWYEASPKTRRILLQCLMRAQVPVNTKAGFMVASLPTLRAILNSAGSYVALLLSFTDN
T1 sequence (Q178U6 1-478 partner): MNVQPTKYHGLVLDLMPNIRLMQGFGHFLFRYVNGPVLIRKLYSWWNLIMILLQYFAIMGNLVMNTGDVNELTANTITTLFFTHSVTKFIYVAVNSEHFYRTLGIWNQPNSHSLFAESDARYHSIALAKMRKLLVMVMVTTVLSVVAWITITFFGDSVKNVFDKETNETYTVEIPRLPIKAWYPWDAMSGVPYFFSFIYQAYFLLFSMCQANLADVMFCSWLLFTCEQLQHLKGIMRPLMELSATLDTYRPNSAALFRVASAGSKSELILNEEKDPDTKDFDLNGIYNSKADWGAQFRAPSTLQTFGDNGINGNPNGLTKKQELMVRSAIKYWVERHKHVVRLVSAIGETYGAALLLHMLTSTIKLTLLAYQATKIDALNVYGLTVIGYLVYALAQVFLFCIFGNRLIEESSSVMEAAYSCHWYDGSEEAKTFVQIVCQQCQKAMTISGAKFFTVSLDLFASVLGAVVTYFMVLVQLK
Source text: (§1) The coding regions of ten AaegOR genes of interest (S3 File) and AaegOrco were synthesized by Twist Bioscience (San Francisco, CA, USA) and cloned into the pENTR plasmid. The Gateway LR directional cloning system (Invitrogen Corp., Carlsbad, CA, USA) was utilized to subclone AaegOR coding regions into the pSP64t-RFA oocyte expression plasmid. Plasmids were purified using the GeneJet Plasmid Miniprep Kit (ThermoFisher Scientific, Waltham, MA, USA). Purified plasmids were sequenced in both directions to confirm coding regions.
(§2) Chemical compounds (S6 File) used in the deorphanization of AaegORs were purchased from Acros Organics (Morris, NJ, USA), Alfa Aesar (Ward Hill, MA, USA), and ThermoFisher Scientific (Waltham, MA, USA) at the highest purity available. Compounds were stored as 1M stocks in 100% DMSO. Serial dilutions of each compound were prepared in 10% DMSO and blended by chemical class.
(§3) pSP64t-RFA: AaegOR clones were linearized using Xbal, and cRNAs were synthesized using the mMESSAGE mMACHINE ® SP6 kit (Life Technologies, Carlsbad, CA, USA). Xenopus laevis stage V-VII oocytes purchased from Xenopus1 (Dexter, MI, USA) were stored at 18°C in Incubation medium (ND96 96 with 5% dialyzed horse serum, 50μg/mL gentamycin, 100μg/mL streptomycin, 100μg/mL penicillin, and 550μg/mL sodium pyruvate). 30nL of cRNA was injected into multiple oocytes using a microinjection syringe pump (World Precision Instruments, Sarasota, FL, USA) maintained at 18°C for 48–72 hrs. Odorant blends were perfused across individual oocytes for 10–15 seconds, held at a resting membrane potential of -80 mV using an OC-725C oocyte clamp (Warner Instruments, LLC, Hamden, CT, USA). Induced currents were measured indirectly using the two-electrode voltage clamp technique (TEVC). Following each stimulus, currents were allowed to return to baseline before further stimulation. Data was captured using the Digidata 1550 B digitizer and PClamp10 software (Molecular Devices, San Jose, CA, USA). Concentration-response curves were generated by perfusing unitary odorants over oocytes at increasing concentrations from [10^-3M] to [10^-9M]. Data were analyzed using GraphPad Prism 8 (GraphPad Software Inc., La Jolla, CA, USA). At least two biological replicates were conducted at each concentration and for each compound. Data for at least seven oocytes responding to each compound was analyzed (S7 File).

AaegOR13 = target: T2, AaegOR13 (Aedes aegypti, UniProt Q16Z13); assay: Two-electrode voltage clamp of Xenopus laevis oocytes expressing AaegOR13/Orco (blends, unitary compounds, concentration-response); conditions: unitary compounds; for Normalized response, unitary compounds, Average: average of oocytes 1-7; for Raw data (Responses in nA), unitary compounds of Indoles 1, Alcohols 1, Alcohols 3 / Normalized response, unitary compounds of Indoles 1, Alcohols 1, Alcohols 3: individual oocytes 1-7; for Normalized response, unitary compounds of Indoles 1, Alcohols 1, Alcohols 3: normalized per oocyte
T2 sequence (Q16Z13 1-389): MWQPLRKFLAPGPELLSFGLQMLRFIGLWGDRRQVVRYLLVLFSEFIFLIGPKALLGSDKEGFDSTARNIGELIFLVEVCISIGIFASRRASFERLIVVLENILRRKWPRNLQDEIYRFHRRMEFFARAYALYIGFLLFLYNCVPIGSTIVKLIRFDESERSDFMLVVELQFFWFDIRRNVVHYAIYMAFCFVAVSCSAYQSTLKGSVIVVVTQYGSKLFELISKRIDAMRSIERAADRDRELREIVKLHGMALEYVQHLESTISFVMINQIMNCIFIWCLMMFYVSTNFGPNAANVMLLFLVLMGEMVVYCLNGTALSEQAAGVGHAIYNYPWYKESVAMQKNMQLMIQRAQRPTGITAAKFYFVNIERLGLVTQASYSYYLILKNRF
T2 sequence (Q178U6 1-478 partner): T1 sequence (Q178U6 1-478 partner)
Source text: as §1, §2, §3

AaegOR28 = target: T3, AaegOR28 (Aedes aegypti, UniProt Q0IGE1); assay: Two-electrode voltage clamp of Xenopus laevis oocytes expressing AaegOR28/Orco (blends, unitary compounds, concentration-response); conditions: AaegOR28; compounds of blend Alcohols 3; individual oocytes 1-10
T3 sequence (Q0IGE1 1-394): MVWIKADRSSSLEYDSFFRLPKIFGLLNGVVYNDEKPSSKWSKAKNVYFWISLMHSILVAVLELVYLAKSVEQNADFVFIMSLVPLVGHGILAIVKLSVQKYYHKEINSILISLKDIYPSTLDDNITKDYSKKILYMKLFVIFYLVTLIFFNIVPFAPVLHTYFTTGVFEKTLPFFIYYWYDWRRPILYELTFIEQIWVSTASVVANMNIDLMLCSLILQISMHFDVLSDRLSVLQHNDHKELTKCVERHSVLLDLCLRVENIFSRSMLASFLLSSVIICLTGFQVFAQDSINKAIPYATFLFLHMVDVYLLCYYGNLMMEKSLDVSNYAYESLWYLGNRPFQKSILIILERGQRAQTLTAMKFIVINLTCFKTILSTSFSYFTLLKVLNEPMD
T3 sequence (Q178U6 1-478 partner): T1 sequence (Q178U6 1-478 partner)
Source text: as §1, §2, §3

CO [methanol]
Normalized response, Average, Alcohols 1 unitary compounds (AaegOR31): 0.0 | Raw Data (Responses in nA), Alcohols 1 unitary compounds (AaegOR31): 0.0 nA | Normalized response, Alcohols 1 unitary compounds (AaegOR31): 0.0 | Normalized response, unitary compounds, Average (AaegOR13): 0.0 | Raw data (Responses in nA), unitary compounds of Indoles 1, Alcohols 1, Alcohols 3 (AaegOR13): 0.0 nA | Normalized response, unitary compounds of Indoles 1, Alcohols 1, Alcohols 3 (AaegOR13): 0.0

CCCCO [n-butanol]
Normalized response, Average, Alcohols 1 unitary compounds (AaegOR31): 0.0 | Raw Data (Responses in nA), Alcohols 1 unitary compounds (AaegOR31): 0.0 nA | Normalized response, Alcohols 1 unitary compounds (AaegOR31): 0.0 | Normalized response, unitary compounds, Average (AaegOR13): 0.0 | Raw data (Responses in nA), unitary compounds of Indoles 1, Alcohols 1, Alcohols 3 (AaegOR13): 0.0 nA | Normalized response, unitary compounds of Indoles 1, Alcohols 1, Alcohols 3 (AaegOR13): 0.0

Cc1ccccc1O [o-cresol]
Raw Data (Responses in nA), Alcohols 1 unitary compounds (AaegOR31): 0.0 nA | Raw data (Responses in nA), unitary compounds of Indoles 1, Alcohols 1, Alcohols 3 (AaegOR13): 0.0 nA and 110.0 nA and 25.0 nA and 35.0 nA and 50.0 nA and 45.0 nA and 15.0 nA

CC(C)(C)c1ccc(O)cc1 [4-tert butylphenol]
Raw Data (Responses in nA), Alcohols 1 unitary compounds (AaegOR31): 0.0 nA (7×) and 10.0 nA

CC(C)=CCC/C(C)=C/CO [Geraniol]
Raw Data (Responses in nA), Alcohols 3 unitary compounds (AaegOR28): 0 nA

Cc1ccc(O)cc1 [p-cresol]
Raw Data (Responses in nA), Alcohols 1 unitary compounds (AaegOR31): 0.0 nA | Raw data (Responses in nA), unitary compounds of Indoles 1, Alcohols 1, Alcohols 3 (AaegOR13): 20.0 nA and 290.0 nA and 85.0 nA and 140.0 nA and 165.0 nA and 135.0 nA and 90.0 nA

CC1CCC(C(C)C)C(O)C1 (racemic) [DL-menthol]
Raw Data (Responses in nA), Alcohols 1 unitary compounds (AaegOR31): 5.0 nA (2×) and 0.0 nA (6×) | Raw data (Responses in nA), unitary compounds of Indoles 1, Alcohols 1, Alcohols 3 (AaegOR13): 0.0 nA (4×) and 30.0 nA and 10.0 nA and 5.0 nA
